Source: US9522914B2, “Azole derivative” (TAISHO PHARMACEUTICAL CO., LTD, priority 2011, dated 2016)

Experiments:
Human V1b receptor [1] = target: T1, Human V1b receptor (Homo sapiens (Human), UniProt P47901); assay: Measurement of V1b Receptor Antagonistic Activity (AVP-induced Fluo-4 fluorescence in CHO cells, FDSS); format: cell-based; conditions: inhibition of the response to AVP 2.5 nmol/L, CHO cells stably expressing human V1b receptor
Procedure: Measurement of V1b Receptor Antagonistic Activity
CHO cells (ATCC) so modified as to express human V1b receptor in a stable manner were cultured in Ham's F-12 medium (containing 10% FBS and 0.5 mg/mL Geneticin). On the day before the test, seeding was conducted at a density of 20,000 cells/well in a 96-well poly-D-lysine coated black plate. On the day of the test, the culture medium was removed, and a loading solution (1×HBSS, 10 mmol/L HEPES, 0.1% bovine serum albumin, 1.25 mmol/L Probenecid, 0.02% Pluronic F-127, 1.5 μmol/L Fluo-4-AM, pH 7.4) was added to each well, followed by incubation in a CO2 incubator for an hour. After the incubation, the loading solution was removed. A test solution (1×HBSS, 10 mmol/L HEPES, 0.1% bovine serum albumin, 1.25 mmol/L Probenecid, pH 7.4) containing any one of test compounds was added to wells, followed by incubation in a CO2 incubator for 30 minutes. The test compound was serially diluted with DMSO so that it would have final concentrations of 0.1 nmol/L to […] at the time of assaying. After the incubation, fluorescence intensity levels were measured and AVP added by means of FDSS (Hamamatsu Photonics K.K.); AVP was added to give a final concentration of 2.5 nmol/L at the time of assaying. […] The fluorescence level in a well to which neither test compound nor AVP was added was defined as 0%, and the fluorescence level in a well to which only AVP was added and no test compound was added was defined as 100%. A dose-response curve was plotted from fluorescence levels after the addition of AVP in the presence of a test compound at various concentrations, and the 50% inhibitory concentration (IC50 value) of the compound was calculated.

Human V1b receptor [2] = target: T1, Human V1b receptor; assay: Binding Test for V1b Receptor ([3H]AVP, crude membrane preparation of 293FT cells); conditions: inhibition of [3H]AVP binding (0.4 to 1 nmol/L), room temperature, 60 minutes
Procedure, shortened: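 Crude membranes from 293FT cells transiently expressing human V1b, incubated with [3H]AVP (0.4 to 1 nmol/L) and compound (0.01 nmol/L–1 μmol/L final) in Tris pH 7.4 with MgCl2 and 0.1% BSA, 60 min at room temperature. Bound label collected by filtration. Nonspecific binding defined with unlabeled AVP; IC50 from dose-response curve.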

T1 sequence (P47901 whole entry): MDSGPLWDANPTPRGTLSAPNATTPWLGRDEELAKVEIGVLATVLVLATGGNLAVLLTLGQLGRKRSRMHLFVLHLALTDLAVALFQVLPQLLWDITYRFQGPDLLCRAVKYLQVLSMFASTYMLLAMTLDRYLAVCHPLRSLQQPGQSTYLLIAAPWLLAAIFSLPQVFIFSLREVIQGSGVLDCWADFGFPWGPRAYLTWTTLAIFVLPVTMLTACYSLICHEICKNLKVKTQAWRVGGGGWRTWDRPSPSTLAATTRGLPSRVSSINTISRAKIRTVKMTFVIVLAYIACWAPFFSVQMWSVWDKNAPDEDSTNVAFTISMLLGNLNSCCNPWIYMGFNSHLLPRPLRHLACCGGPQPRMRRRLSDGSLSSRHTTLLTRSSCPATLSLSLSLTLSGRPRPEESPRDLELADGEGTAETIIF

| SMILES | IC50 (Human V1b receptor [1]) [nM] | IC50 (Human V1b receptor [2]) [nM] |
| --- | --- | --- |
| CC(C)NC(=O)Cc1nn(-c2ccc(CC(C)N3C4CCC3COC4)cc2)c(=O)n1-c1cccc(Cl)c1 [Example D-18, 2-[4-(3-chlorophenyl)-1-{4-[2-(3-oxa-8-azabicyclo[3.2.1]oct-8-yl)propyl]phenyl}-5-oxo-4,5-dihydro-1H-1,2,4-triazol-3-yl]-N-(propan-2-yl)acetamide] | 0.65 | 1.5 |
| CC(C)(C)NC(=O)Cc1nn(-c2ccc(CCN3C4CCC3COC4)cc2)c(=O)n1-c1cccc(Cl)c1 [Example D-14, N-tert-butyl-2-[4-(3-chlorophenyl)-1-{4-[2-(3-oxa-8-azabicyclo[3.2.1]oct-8-yl)ethyl]phenyl}-5-oxo-4,5-dihydro-1H-1,2,4-triazol-3-yl]acetamide] | 12 | 4.7 |
| CC(C)NC(=O)Cn1cc(-c2ccc(CCN3CCOCC3)cc2)nc1-c1cccc(Cl)c1 [Example A-02, 2-[2-(3-chlorophenyl)-4-{4-[2-(morpholin-4-yl)ethyl]phenyl}-1H-imidazol-1-yl]-N-(propan-2-yl)acetamide] | 3.2 | 3.7 |
| CC(C)(C)NC(=O)Cc1nn(-c2ccc(CCN3CCOCC3)cc2)c(=O)n1-c1cccc(Cl)c1 [Example D-13, N-tert-butyl-2-[4-(3-chlorophenyl)-1-{4-[2-(morpholin-4-yl)ethyl]phenyl}-5-oxo-4,5-dihydro-1H-1,2,4-triazol-3-yl]acetamide] | 13 | 3.5 |
| CC(C)NC(=O)Cc1oc(-c2ccc(CCN3CC4(COC4)C3)cc2)nc1-c1cccc(Cl)c1 [Example C-12, 2-[4-(3-chlorophenyl)-2-{4-[2-(2-oxa-6-azaspiro[3.3]hept-6-yl)ethyl]phenyl}-1,3-oxazol-5-yl]-N-(propan-2-yl)acetamide] | 32 | 4.3 |
| CC(C)NC(=O)Cn1nc(-c2ccc(CCN3CCOCC3)cc2)nc1-c1cccc(Cl)c1 [Example B-02, 2-[5-(3-chlorophenyl)-3-{4-[2-(morpholin-4-yl)ethyl]phenyl}-1H-1,2,4-triazol-1-yl]-N-(propan-2-yl)acetamide] | 10 | 2.2 |
